These results are taken from patent US5576339A, “Pyridyl substituted cyclopentadienes for the treatment of inflamation” (priority 1995, dated 1996).

Assay [1] has as its system COX II enzyme. The conditions noted are these: in words, literature; cited from earlier work.
Assay [2] concerns the target COX II. In words: Assay for COX II activity (PGE2 ELISA, recombinant enzyme). The assay is classed as biochemical, human or murine. The conditions noted are these: arachidonic acid (10 μM), pre-incubated 10-20 minutes, pH 8.0; read-out: COX II ID50. Here is the method: (§1) A 2.0 kb fragment containing the coding region of either human or murine COX-I or human or murine COX-II was cloned into a BamH1 site of the baculovirus transfer vector pVL1393 (Invitrogen) to generate the baculovirus transfer vectors for COX-I and COX-II in a manner similar to the method of D. R. O'Reilly et al (Baculovirus Expression Vectors: A Laboratory Manual (1992)). Recombinant baculoviruses were isolated by transfecting 4 μg of baculovirus transfer vector DNA into SF9 insect cells (2×10e8) along with 200 ng of linearized baculovirus plasmid DNA by the calcium phosphate method. See M. D. Summers and G. E. Smith, A Manual of Methods for Baculovirus Vectors and Insect Cell Culture Procedures. Texas Agric. Exp. Station Bull. 1555 (1987). Recombinant viruses were purified by three rounds of plaque purification and high titer (10E7-10E8 pfu/ml) stocks of virus were prepared. For large scale production, SF9 insect cells were infected in 10 liter fermentors (0.5×10^6 /ml) with the recombinant baculovirus stock such that the multiplicity of infection was 0.1. […]
(§2) COX activity was assayed as PGE2 formed/μg protein/time using an ELISA to detect the prostaglandin released. […] The PGE2 formed was measured by standard ELISA technology (Cayman Chemical).
(An ELISA detects its analyte on a solid surface through an enzyme-linked reagent.)

In assay [3] the target is COX I. Kind of assay: Assay for COX I activity (PGE2 ELISA, recombinant enzyme). Particulars: arachidonic acid (10 μM), pre-incubated 10-20 minutes, pH 8.0; read-out: COX I ID50. The assay is classed as biochemical, human or murine. Here is the method:
as §1, §2

With `COc1ccc2cc(CC(=O)O)ccc2c1` [6-methoxy-2-napthylacetic acid], the “inhibition of the COX II enzyme” value in assay [1] is given as “selectively inhibit the COX II enzyme”.
Regarding `CC1(C)C=C(c2ccc(F)cc2)C(c2ccc(S(C)(=O)=O)cc2)=C1` [Example 1, 1-Methylsulfonyl-4-[1,1-dimethyl-4-(4-fluorophenyl)cyclopenta-2,4-dien-3-yl]benzene], the figures for the IC50 in assay [2] and in assay [3] were 0.05 µM and 3.68 µM, respectively.
As for `CS(=O)(=O)Nc1ccc([N+](=O)[O-])cc1OC1CCCCC1` [N-(2-cyclohexyloxy-4-nitrophenyl)methanesulfonamide], the “inhibition of the COX II enzyme” value in assay [1] is “inhibits the COX II enzyme”.
